Test results reported in ChEMBL document CHEMBL5576068, “Design, synthesis, and biological antitumor evaluation of tetrahydroisoquinoline derivatives” (Bioorg Med Chem Lett, 2024).

Assays:
[1] = tested on: HCT-116; test: Cytotoxicity against human HCT-116 cells assessed as cell inhibition rate at 40 uM by CCK8 assay relative to control; format: functional
[2] = tested on: MDA-MB-231; test: Cytotoxicity against human MDA-MB-231 cells assessed as cell inhibition rate at 40 uM by CCK8 assay relative to control; format: functional
[3] = tested on: HepG2; test: Cytotoxicity against human HepG2 cells assessed as cell inhibition rate at 40 uM by CCK8 assay relative to control; format: functional
[4] = tested on: A-375; test: Cytotoxicity against human A-375 cells assessed as cell inhibition rate at 40 uM by CCK8 assay relative to control; format: functional
[5] = tested on: HCT-116; test: Cytotoxicity against human HCT-116 cells measured for 48 hrs; format: functional, cell-based; details: HCT-116, 48 h
[6] = tested on: MDA-MB-231; test: Cytotoxicity against human MDA-MB-231 cells measured for 48 hrs; format: functional, cell-based; details: MDA-MB-231, 48 h
[7] = tested on: HepG2; test: Cytotoxicity against human HepG2 cells measured for 48 hrs; format: functional, cell-based; details: HepG2, 48 h
[8] = tested on: A-375; test: Cytotoxicity against human A-375 cells measured for 48 hrs; format: functional, cell-based; details: A-375, 48 h

Structure (SMILES) | inhibition at 40 µM [1] | inhibition at 40 µM [2] | inhibition at 40 µM [3] | inhibition at 40 µM [4] | IC50 [5] | IC50 [6] | IC50 [7] | IC50 [8]
COc1cc2c(cc1OCc1ccccc1)C[N+](C)(Cc1ccnc3ccccc13)CC2 (centres undefined) | 12.1% | 8.29% | 11.7% | 9.33% | – | – | – | –
COc1cc2c(cc1OC)CN(C)CC2 | 25.2% | 30.7% | 20.6% | 27.4% | – | – | – | –
CCCCN(CCCC)c1ccc(Oc2ccc(C[N+]3(C)CCc4cc(OC)c(OCc5ccccc5)cc4C3)cn2)cc1 (centres undefined) | – | – | – | – | 10.5 µM | > 20 µM | 10 µM | 10.3 µM
COc1cc2c(cc1OCc1ccccc1)C[N+](C)(Cc1ccc(Oc3ccc(OC(C)C)cc3)nc1)CC2 (centres undefined) | – | – | – | – | 19.3 µM | > 20 µM | 9.67 µM | 13.5 µM
COc1cc2c(cc1OCc1ccccc1)C[N+](C)(Cc1ccc(Oc3cc(C(F)(F)F)ccc3F)nc1)CC2 (centres undefined) | – | – | – | – | 18.6 µM | 17.3 µM | 12.4 µM | 12.5 µM
COc1cc2c(cc1OCc1ccccc1)C[N+](C)(Cc1ccc(Oc3ccc(Oc4ccc(C(F)(F)F)cc4)cc3)nc1)CC2 (centres undefined) | – | – | – | – | 4.1 µM | 9.8 µM | 4.1 µM | 6.1 µM
COc1cc2c(cc1OCc1ccccc1)C[N+](C)(Cc1ccc(Oc3ccc(/N=N/c4ccccc4)cc3)nc1)CC2 (centres undefined) | – | – | – | – | 11.6 µM | 13.3 µM | 13.1 µM | 5.5 µM
COc1cc2c(cc1OCc1ccccc1)CN(C)CC2 | 32.9% | 30.2% | 16.3% | 14.7% | – | – | – | –
COc1ccc2c(c1OC)C(=O)O[C@@H]2[C@H]1c2c(cc3c(c2OC)OCO3)CCN1C [NOSCAPINE] | – | – | – | – | 154 µM | 120 µM | 120 µM | 180 µM
COc1cc2c(cc1OCc1ccccc1)C[N+](C)(Cc1ccc(Nc3ccccc3[N+](=O)[O-])nc1)CC2 (centres undefined) | – | – | – | – | 4.6 µM | 10 µM | 4.8 µM | 7.6 µM
C[N+]1(Cc2ccc(Br)nc2)CCc2cc3c(cc2C1)OCO3 (centres undefined) | 29.2% | 23.2% | 19.8% | 9.69% | – | – | – | –
CCCCC[C@H]1CC[C@H](c2ccc(Oc3ccc(C[N+]4(C)CCc5cc(OC)c(OCc6ccccc6)cc5C4)cn3)cc2)CC1 (some centres undefined) | – | – | – | – | 9 µM | 11.4 µM | 11.6 µM | 8.7 µM
COc1cc2c(cc1OCc1ccccc1)C[N+](C)(Cc1ccc(Oc3ccc(C45CC6CC(CC(C6)C4)C5)cc3)nc1)CC2 (centres undefined) | – | – | – | – | 2.5 µM | 4.6 µM | 4.2 µM | 12.4 µM
COc1cc2c(cc1OCc1ccccc1)C[N+](C)(Cc1ccc(Oc3ccc(C4CCC(=O)CC4)cc3)nc1)CC2 (centres undefined) | – | – | – | – | 18.7 µM | 12.4 µM | > 20 µM | 17.9 µM
COc1cc2c(cc1OCc1ccccc1)C[N+](C)(Cc1ccc(Oc3ccc(C4CC4)cc3)nc1)CC2 (centres undefined) | – | – | – | – | > 20 µM | 12.5 µM | 19.2 µM | 15.7 µM
COc1cc2c(cc1OCc1ccccc1)C[N+](C)(Cc1ccc(Oc3cc(Cl)ccc3Oc3ccc(Cl)cc3Cl)nc1)CC2 (centres undefined) | – | – | – | – | 4.5 µM | 9.3 µM | 4.7 µM | 5.4 µM

Structure (SMILES) | inhibition at 40 µM [1] | inhibition at 40 µM [2] | inhibition at 40 µM [3] | inhibition at 40 µM [4] | IC50 [5] | IC50 [6] | IC50 [7] | IC50 [8]
COc1cc2c(cc1O)C[N+](C)(Cc1ccc(Br)nc1)CC2 (centres undefined) | 34.5% | 34.4% | 15% | 12.3% | – | – | – | –
COc1cc2c(cc1OCc1ccccc1)C[N+](C)(Cc1ccc(Oc3ccc(OCc4ccccc4)cc3)nc1)CC2 (centres undefined) | – | – | – | – | 8.9 µM | 12.4 µM | 6.8 µM | 11.6 µM
COc1cc2c(cc1OCc1ccccc1)C[N+](C)(Cc1ccc([N+](=O)[O-])nc1)CC2 (centres undefined) | 26.6% | 10.1% | 22.6% | 16.1% | – | – | – | –
COc1cc2c(cc1OCc1ccccc1)C[N+](C)(Cc1ccc(Br)cn1)CC2 (centres undefined) | 16% | 23.7% | 27.8% | 31.2% | – | – | – | –
COc1cc2c(c(OC)c1OC)CC[N+](C)(Cc1ccc(Br)nc1)C2 (centres undefined) | 53.4% | 35.1% | 60.6% | 24.8% | – | – | – | –
COc1cc2c(cc1OCc1ccccc1)C[N+](C)(Cc1ccc(Oc3ccc(-c4ccc(C#N)cc4)cc3)nc1)CC2 (centres undefined) | – | – | – | – | 7.5 µM | > 20 µM | 3.8 µM | 9.7 µM
COc1cc2c(cc1OCc1ccccc1)C[N+](C)(Cc1ccc(Br)nc1)CC2 (centres undefined) | 20.7% | 17.4% | 27.3% | 22.2% | – | – | – | –
COc1cc2c(cc1OCc1ccccc1)C[N+](C)(Cc1ccc3ccccc3n1)CC2 (centres undefined) | 3.2% | 2.75% | 7.43% | 13% | – | – | – | –
COc1cc2c(cc1OCc1ccccc1)C[N+](C)(Cc1ccc(Oc3ccc(SC(F)(F)F)cc3)nc1)CC2 (centres undefined) | – | – | – | – | 13.4 µM | 15.3 µM | 14.6 µM | 11.6 µM
COc1cc2c(c(OC)c1OC)CCN(C)C2 | 18.2% | 52% | 9.18% | 22.3% | – | – | – | –
COc1cc2c(cc1OCc1ccccc1)C[N+](C)(Cc1ccc(Oc3ccc(Oc4ccccc4)cc3)nc1)CC2 (centres undefined) | – | – | – | – | 11.6 µM | 12.6 µM | 12.6 µM | 7.6 µM
CN1CCc2cc3c(cc2C1)OCO3 | 18.2% | 14.5% | 26.8% | 22.5% | – | – | – | –
COc1cc2c(cc1OC)C[N+](C)(Cc1ccc(Br)nc1)CC2 (centres undefined) | 18.4% | 30.5% | 19.8% | 41.1% | – | – | – | –
COc1cc2c(cc1OCc1ccccc1)C[N+](C)(Cc1cnc3ccccc3c1)CC2 (centres undefined) | 8.29% | 7.43% | 6.8% | 13.9% | – | – | – | –
COc1cc2c(cc1OCc1ccccc1)C[N+](C)(Cc1ccccn1)CC2 (centres undefined) | 11.6% | 9.61% | 18.9% | 13.7% | – | – | – | –
